Measurements: US20250115620A1, “BRIDGED TRICYCLIC CARBAMOYLPYRIDONE COMPOUNDS AND USES THEREOF” (Gilead Sciences, Inc., priority 2022, published 2025)
Read-outs that look alike come from different tables or passages of the source.

Key:
HIV-1 (IIIB) = experiment: microbe, parasite or virus in culture; type: cell-based; details: Human immunodeficiency virus 1, IIIB, MT4, 120 h, HIV-1 (IIIB) in MT-4 cells, 5 days incubation, Cell Titer Glo; read-out: MT4 EC50
pLAI reporter virus = experiment: microbe, parasite or virus in culture; type: cell-based, HIV; details: Human immunodeficiency virus 1, MT4, 72 h
in vitro = details: human, uninfected MT-4 cells

## CCC1=NO[C@@]2(CC[C@H](C)N3C[C@H]2n2cc(C(=O)NCc4ccc(F)cc4F)c(=O)c(O)c2C3=O)O1 [Example 94, (3′S,5R,7′R)—N-(2,4-difluorobenzyl)-3-ethyl-12′-hydroxy-3′-methyl-1′,11′-dioxo-1′,4′,5′,11′-tetrahydro-3′H,7′H-spiro[[1,4,2]dioxazole-5,6′-[2,7]methanopyrido[1,2-a][1,4]diazonine]-10′-carboxamide]
HIV-1 (IIIB)
  EC50: 1 nM
pLAI reporter virus; read-out: RLUC 50% HS EC50
  EC50: 684 nM
pLAI reporter virus; read-out: RLUC CCM EC50
  EC50: 0.2 nM
In vitro
  CC50 at 5 days: 30200 nM

## COC1=NO[C@@]2(CCCN3C[C@H]2n2cc(C(=O)NCc4c(F)cc(F)cc4F)c(=O)c(O)c2C3=O)C1 [Example 96, (5S,7′R)-12′-hydroxy-3-methoxy-1′,11′-dioxo-N-(2,4,6-trifluorobenzyl)-1′,4′,5′,11′-tetrahydro-3′H,4H,7′H-spiro[isoxazole-5,6′-[2,7]methanopyrido[1,2-a][1,4]diazonine]-10′-carboxamide]
HIV-1 (IIIB)
  EC50: 1.1 nM
pLAI reporter virus; read-out: RLUC 50% HS EC50
  EC50: 1.2 nM
pLAI reporter virus; read-out: RLUC CCM EC50
  EC50: 0.2 nM
In vitro
  CC50 at 5 days: 31400 nM

## COC1=NO[C@@]2(CC[C@@H](C)N3C[C@H]2n2cc(C(=O)NCc4c(F)cc(F)cc4F)c(=O)c(O)c2C3=O)C1 [Example 97, (3′R,5S,7′R)-12′-hydroxy-3-methoxy-3′-methyl-1′,11′-dioxo-N-(2,4,6-trifluorobenzyl)-1′,4′,5′,11′-tetrahydro-3′H,4H,7′H-spiro[isoxazole-5,6′-[2,7]methanopyrido[1,2-a][1,4]diazonine]-10′-carboxamide]
HIV-1 (IIIB)
  EC50: 2.5 nM
pLAI reporter virus; read-out: RLUC 50% HS EC50
  EC50: 1.8 nM
pLAI reporter virus; read-out: RLUC CCM EC50
  EC50: 0.5 nM
In vitro
  CC50 at 5 days: 10400 nM

## CC1=NO[C@@]2(CC[C@@H](C)N3C[C@H]2n2cc(C(=O)NCc4c(F)cc(F)cc4F)c(=O)c(O)c2C3=O)C1 [Example 98, (3′R,5S,7′R)-12′-hydroxy-3,3′-dimethyl-1′,11′-dioxo-N-(2,4,6-trifluorobenzyl)-1′,4′,5′,11′-tetrahydro-3′H,4H,7′H-spiro[isoxazole-5,6′-[2,7]methanopyrido[1,2-a][1,4]diazonine]-10′-carboxamide]
HIV-1 (IIIB)
  EC50: 3 nM
pLAI reporter virus; read-out: RLUC 50% HS EC50
  EC50: 7.4 nM
pLAI reporter virus; read-out: RLUC CCM EC50
  EC50: 0.5 nM
In vitro
  CC50 at 5 days: 12700 nM

## COC1=NO[C@@]2(CC[C@H](CF)N3C[C@H]2n2cc(C(=O)NCc4c(F)cc(F)cc4F)c(=O)c(O)c2C3=O)C1 [Example 99, (3′R,5S,7′R)-3′-(fluoromethyl)-12′-hydroxy-3-methoxy-1′,11′-dioxo-N-(2,4,6-trifluorobenzyl)-1′,4′,5′,11′-tetrahydro-3′H,4H,7′H-spiro[isoxazole-5,6′-[2,7]methanopyrido[1,2-a][1,4]diazonine]-10′-carboxamide]
HIV-1 (IIIB)
  EC50: 1.5 nM
pLAI reporter virus; read-out: RLUC 50% HS EC50
  EC50: 19.7 nM
pLAI reporter virus; read-out: RLUC CCM EC50
  EC50: 0.2 nM
In vitro
  CC50 at 5 days: 36500 nM

## COC1=NO[C@@]2(CC[C@H](CF)N3C[C@H]2n2cc(C(=O)NCc4ccc(F)cc4F)c(=O)c(O)c2C3=O)C1 [Example 100, (3′R,5S,7′R)—N-(2,4-difluorobenzyl)-3′-(fluoromethyl)-12′-hydroxy-3-methoxy-1′,11′-dioxo-1′,4′,5′,11′-tetrahydro-3′H,4H,7′H-spiro[isoxazole-5,6′-[2,7]methanopyrido[1,2-a][1,4]diazonine]-10′-carboxamide]
HIV-1 (IIIB)
  EC50: 1.5 nM
pLAI reporter virus; read-out: RLUC 50% HS EC50
  EC50: 13.5 nM
pLAI reporter virus; read-out: RLUC CCM EC50
  EC50: 0.3 nM
In vitro
  CC50 at 5 days: ≥ 50000 nM

## C[C@H]1CC[C@]2(CC(=O)NO2)[C@H]2CN1C(=O)c1c(O)c(=O)c(C(=O)NCc3c(F)cc(F)cc3F)cn12 [Example 101, (3′S,5S,7′R)-12′-hydroxy-3′-methyl-1′,3,11′-trioxo-N-(2,4,6-trifluorobenzyl)-1′,4′,5′,11′-tetrahydro-3′H,7′H-spiro[isoxazolidine-5,6′-[2,7]methanopyrido[1,2-a][1,4]diazonine]-10′-carboxamide]
HIV-1 (IIIB)
  EC50: 98.1 nM
pLAI reporter virus; read-out: RLUC 50% HS EC50
  EC50: 408 nM
pLAI reporter virus; read-out: RLUC CCM EC50
  EC50: 34 nM
In vitro
  CC50 at 5 days: ≥ 50000 nM
